Data set [1] can be described thus: Storage stability of Example 1 tablets, contamination profile (HPLC peak area). As to conditions: for result with further compounds having a stabilizing action (in words): used instead of triethyl citrate and simethicone, analogously to the preceding examples.
Data set [2] can be described thus: Storage stability of tablets of Examples 2 to 5, amended HPLC method. The data set is classed as physicochemical. As to conditions: tablets of Examples 2 to 5, 50° C., 2 weeks. The source says:
Example 1 was repeated, but with the compounds and concentrations stated in Table 2. Triethyl citrate was applied to a mixture of the active compound, lactose and maize starch, the mixture was granulated with an aqueous solution of hydroxypropylcellulose, the granules were worked up with the additives listed in Table 2 to give the finished end mixture and this mixture was pressed to tablets with a rotary tablet press (Fette P1). Tablets with two different pressing pressures, or two different hardnesses (50 N and 80 N) were prepared and were stored in open brown glass containers at 50° C. for at least two weeks. At the same time, the end mixture which had not been subjected to pressure was stored at 4° C. in closed brown glass containers for the same period of time as a reference sample for comparison.
The tablets from Examples […], 3, 4 and 5 were investigated with an amended HPLC method, which led to other retention times. In this, the peaks correspond to the following compounds:
Peak at 1.7-1.8 min=desethyl-candesartan cilexetil Peak at 3.8-3.9 min=candesartan cilexetil Peak at 9.1-9.2 min=N-ethyl-candesartan cilexetil

Where a name gives a salt, the structure may show the parent alone.

As for `CCCCOC(=O)CCCCCCCCC(=O)OCCCC` [dibutyl sebacate], in data set [1], the “result with further compounds having a stabilizing action (in words)” value (shortened to “result”) is on record as “Analogous results”. In the case of `CCOC(=O)c1ccccc1C(=O)OCC` [diethyl phthalate], the “result” value in data set [1] is reported as “Analogous results”.

Consider `COC(=O)c1ccccc1C(=O)OC` [dimethyl phthalate], for which the “result” value in data set [1] is “Analogous results”. For the compound `CCCCOC(=O)CC(O)(CC(=O)OCCCC)C(=O)OCCCC` [tributyl citrate], the “result” value in data set [1] is listed as “Analogous results”.

Turning to `CCOC(=O)CC(O)(CC(=O)OCC)C(=O)OCC` [triethyl citrate], the “stabilizing action (in words)” value in data set [2] is “stabilizing action”. Besides, in data set [1] (Example 1 tablets, 50° C., two weeks), the “stabilizing action for candesartan cilexetil tablets during storage (in words)” value is listed as “stabilizing action”. `COC(=O)CC(O)(CC(=O)OC)C(=O)OC` [trimethyl citrate]: in data set [1], the “result” value is “Analogous results”.

The values are drawn from patent publication US20090208583A1, “TABLETS COMPRISING CANDESARTAN CILEXETIL” (Siegfried Generics International AG, priority 2006, published 2009).
